# Read-outs that look alike come from different tables or passages of the source. Marks after values point to notes of the source that are not given here.
# Key:
# [1] = ref PharmaPendium, cited from earlier work
# [2] = system: hiPSC-derived neurons co-cultured with human primary astrocytes in 3D; assay: Ca2+ transient oscillation assay (FDSS), 3D spheroids; assay type: cell-based; settings: 60 min
# Summary of the method: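 Fura-2 fluorescence was read twice for 20 min each: a baseline 10 min after 0.04% DMSO, and again 60 min after compound addition at nominal final concentration. The 3D co-cultures (1:1 hiPSC neurons from a donor and human astrocytes, 8000 each) matured 5 weeks in BrainPhys medium after a 1-week differentiation.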
# [3] = system: hiPSC-derived neurons co-cultured with human primary astrocytes in 2D; assay: Ca2+ transient oscillation assay (FDSS), 2D co-culture; assay type: cell-based; settings: for activation at 3.7 µM / activation at 11.11 µM / activation at 33.33 µM / activation at 100 µM: Homo sapiens, 1 h, 60 min; for effect on peak number / Ca2+ neuronal oscillations, in words: 2D format
# Summary of the method: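 Cultures were 10,000 CW50065 hiPSC excitatory neurons plus 2500 primary human astrocytes per well. Recordings used Cal-520 dye in HBSS/HEPES/glucose at 37 °C, with a 470/540 nm read at 2 Hz. Oscillations were stabilized with 0.04% DMSO, read for 20 min, then read again 60 min after compound addition (final DMSO 0.1%).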
# [4] = Table 1, peak plasma concentration in men, free therapeutic Cmax
# [5] = Table 2, highest plasma concentration in humans after the therapeutic dose
# [6] = read-out: Area under the curve - 2D Mean
# [7] = read-out: Peak amplitude - 2D Mean
# [8] = read-out: Peak-to-peak interval - 2D Mean
smiles,measurement,setting,value
CC(=O)Oc1ccccc1C(=O)O [Aspirin],Free Cmax,[1]; [4],40 to 160 nM
same,Free Cmax,[1]; [5],40 to 160 nM
same,Area under the curve - 3D Mean,[2]; 3.7 µM,139.0 % change from baseline
same,Peak Number—3D Mean,[2]; 3.7 µM,−0.4 % change from baseline
same,Peak amplitude - 3D Mean,[2]; 3.7 µM,129.1 % change from baseline
same,Peak width - 3D Mean,[2]; 3.7 µM,4.2 % change from baseline
same,Peak-to-peak interval - 3D Mean,[2]; 3.7 µM,10.9 % change from baseline
same,Area under the curve - 3D Mean,[2]; 11.11 µM,139.2 % change from baseline
same,Peak Number—3D Mean,[2]; 11.11 µM,0.0 % change from baseline
same,Peak amplitude - 3D Mean,[2]; 11.11 µM,138.1 % change from baseline
same,Peak width - 3D Mean,[2]; 11.11 µM,0.3 % change from baseline
same,Peak-to-peak interval - 3D Mean,[2]; 11.11 µM,−2.2 % change from baseline
same,Area under the curve - 3D Mean,[2]; 33.33 µM,147.8 % change from baseline
same,Peak Number—3D Mean,[2]; 33.33 µM,10.0 % change from baseline
same,Peak amplitude - 3D Mean,[2]; 33.33 µM,135.8 % change from baseline
same,Peak width - 3D Mean,[2]; 33.33 µM,5.0 % change from baseline
same,Peak-to-peak interval - 3D Mean,[2]; 33.33 µM,−1.7 % change from baseline
same,Area under the curve - 3D Mean,[2]; 100 µM,133.2 % change from baseline
same,Peak Number—3D Mean,[2]; 100 µM,−8.2 % change from baseline
same,Peak amplitude - 3D Mean,[2]; 100 µM,123.5 % change from baseline
same,Peak width - 3D Mean,[2]; 100 µM,4.7 % change from baseline
same,Peak-to-peak interval - 3D Mean,[2]; 100 µM,6.7 % change from baseline
same,activation at 3.7 µM,[3]; [6],48.5%
same,activation at 3.7 µM,[3]; read-out: Peak Number—2D Mean,-10.2%
same,activation at 3.7 µM,[3]; [7],13.1%
same,activation at 3.7 µM,[3]; read-out: Peak width - 2D Mean,43.6%
same,activation at 3.7 µM,[3]; [8],15.5%
same,activation at 11.11 µM,[3]; [6],25.7%
same,activation at 11.11 µM,[3]; read-out: Peak Number—2D Mean,17.6%
same,activation at 11.11 µM,[3]; [7],4.2%
same,activation at 11.11 µM,[3]; read-out: Peak width - 2D Mean,25.9%
same,activation at 11.11 µM,[3]; [8],1.8%
same,activation at 33.33 µM,[3]; [6],37.6%
same,activation at 33.33 µM,[3]; read-out: Peak Number—2D Mean,10.1%
same,activation at 33.33 µM,[3]; [7],6.2%
same,activation at 33.33 µM,[3]; read-out: Peak width - 2D Mean,38.3%
same,activation at 33.33 µM,[3]; [8],-0.5%
same,activation at 100 µM,[3]; [6],30%
same,activation at 100 µM,[3]; read-out: Peak Number—2D Mean,27.9%
same,activation at 100 µM,[3]; [7],3.9%
same,activation at 100 µM,[3]; read-out: Peak width - 2D Mean,32.1%
same,activation at 100 µM,[3]; [8],-17%
O=C1NC(=O)C(c2ccccc2)(c2ccccc2)N1 [Phenytoin],Free Cmax,[1]; [4],4000 to 15000 nM
same,Free Cmax,[1]; [5],4000 to 15000 nM
same,Area under the curve - 3D Mean,[2]; 3.7 µM,132.1 % change from baseline
same,Peak Number—3D Mean,[2]; 3.7 µM,1.4 % change from baseline
same,Peak amplitude - 3D Mean,[2]; 3.7 µM,111.5 % change from baseline
same,Peak width - 3D Mean,[2]; 3.7 µM,7.4 % change from baseline
same,Peak-to-peak interval - 3D Mean,[2]; 3.7 µM,2.9 % change from baseline
same,Area under the curve - 3D Mean,[2]; 11.11 µM,177.0 % change from baseline
same,Peak Number—3D Mean,[2]; 11.11 µM,−11.8 % change from baseline
same,Peak amplitude - 3D Mean,[2]; 11.11 µM,110.4 % change from baseline
same,Peak width - 3D Mean,[2]; 11.11 µM,29.4 % change from baseline
same,Peak-to-peak interval - 3D Mean,[2]; 11.11 µM,8.2 % change from baseline
same,Area under the curve - 3D Mean,[2]; 33.33 µM,199.3 % change from baseline
same,Peak Number—3D Mean,[2]; 33.33 µM,−14.6 % change from baseline
same,Peak amplitude - 3D Mean,[2]; 33.33 µM,91.2 % change from baseline
same,Peak width - 3D Mean,[2]; 33.33 µM,47.9 % change from baseline
same,Peak-to-peak interval - 3D Mean,[2]; 33.33 µM,17.7 % change from baseline
same,Area under the curve - 3D Mean,[2]; 100 µM,198.2 % change from baseline
same,Peak Number—3D Mean,[2]; 100 µM,−9.9 % change from baseline
same,Peak amplitude - 3D Mean,[2]; 100 µM,88.4 % change from baseline
same,Peak width - 3D Mean,[2]; 100 µM,50.5 % change from baseline
same,Peak-to-peak interval - 3D Mean,[2]; 100 µM,6.6 % change from baseline
same,"effect on peak number / Ca2+ neuronal oscillations, in words",[3],significantly reduced peak number
same,activation at 3.7 µM,[3]; [6],33.2%
same,activation at 3.7 µM,[3]; read-out: Peak Number—2D Mean,-33.5%
same,activation at 3.7 µM,[3]; [7],7.3%
same,activation at 3.7 µM,[3]; read-out: Peak width - 2D Mean,27.2%
same,activation at 3.7 µM,[3]; [8],46.3%
same,activation at 11.11 µM,[3]; [6],27.5%
same,activation at 11.11 µM,[3]; read-out: Peak Number—2D Mean,-15.2%
same,activation at 11.11 µM,[3]; [7],-0.2%
same,activation at 11.11 µM,[3]; read-out: Peak width - 2D Mean,31.5%
same,activation at 11.11 µM,[3]; [8],22.2%
same,activation at 33.33 µM,[3]; [6],15.8%
same,activation at 33.33 µM,[3]; read-out: Peak Number—2D Mean,-51.2%
same,activation at 33.33 µM,[3]; [7],-3%
same,activation at 33.33 µM,[3]; read-out: Peak width - 2D Mean,17%
same,activation at 33.33 µM,[3]; [8],89%
same,activation at 100 µM,[3]; [6],33.3%
same,activation at 100 µM,[3]; read-out: Peak Number—2D Mean,-27.5%
same,activation at 100 µM,[3]; [7],0.2%
same,activation at 100 µM,[3]; read-out: Peak width - 2D Mean,34.7%
same,activation at 100 µM,[3]; [8],44.5%
NCCc1c[nH]c2ccc(O)cc12 [Serotonin],Free Cmax,[1]; [4],1000 to 2000 nM
same,Free Cmax,[1]; [5],1000 to 2000 nM
same,Area under the curve - 3D Mean,[2]; 3.7 µM,−19.4 % change from baseline
same,Peak Number—3D Mean,[2]; 3.7 µM,−70.7 ** % change from baseline
same,Peak amplitude - 3D Mean,[2]; 3.7 µM,−4.3 % change from baseline
same,Peak width - 3D Mean,[2]; 3.7 µM,−54.0 % change from baseline
same,Peak-to-peak interval - 3D Mean,[2]; 3.7 µM,−58.0 % change from baseline
same,Area under the curve - 3D Mean,[2]; 11.11 µM,19.8 % change from baseline
same,Peak Number—3D Mean,[2]; 11.11 µM,−69.1 ** % change from baseline
same,Peak amplitude - 3D Mean,[2]; 11.11 µM,33.7 % change from baseline
same,Peak width - 3D Mean,[2]; 11.11 µM,−31.8 % change from baseline
same,Peak-to-peak interval - 3D Mean,[2]; 11.11 µM,−37.9 % change from baseline
same,Area under the curve - 3D Mean,[2]; 33.33 µM,−21.3 % change from baseline
same,Peak Number—3D Mean,[2]; 33.33 µM,−82.1 ** % change from baseline
same,Peak amplitude - 3D Mean,[2]; 33.33 µM,−3.1 % change from baseline
same,Peak width - 3D Mean,[2]; 33.33 µM,−52.3 % change from baseline
same,Peak-to-peak interval - 3D Mean,[2]; 33.33 µM,29.2 % change from baseline
same,Area under the curve - 3D Mean,[2]; 100 µM,−21.1 % change from baseline
same,Peak Number—3D Mean,[2]; 100 µM,−80.3 ** % change from baseline
same,Peak amplitude - 3D Mean,[2]; 100 µM,−10.3 % change from baseline
same,Peak width - 3D Mean,[2]; 100 µM,−55.4 % change from baseline
same,Peak-to-peak interval - 3D Mean,[2]; 100 µM,−82.0 % change from baseline
same,"effect on peak number / Ca2+ neuronal oscillations, in words",[3],significantly reduced peak number
same,activation at 3.7 µM,[3]; [6],12.8%
same,activation at 3.7 µM,[3]; read-out: Peak Number—2D Mean,-23.4%
same,activation at 3.7 µM,[3]; [7],-4.9%
same,activation at 3.7 µM,[3]; read-out: Peak width - 2D Mean,17.3%
same,activation at 3.7 µM,[3]; [8],28.4%
same,activation at 11.11 µM,[3]; [6],11.1%
same,activation at 11.11 µM,[3]; read-out: Peak Number—2D Mean,-1.7%
same,activation at 11.11 µM,[3]; [7],-13.7%
same,activation at 11.11 µM,[3]; read-out: Peak width - 2D Mean,18.3%
same,activation at 11.11 µM,[3]; [8],65.8%
same,activation at 33.33 µM,[3]; [6],-8.9%
same,activation at 33.33 µM,[3]; read-out: Peak Number—2D Mean,-43.8%
same,activation at 33.33 µM,[3]; [7],-27.1%
same,activation at 33.33 µM,[3]; read-out: Peak width - 2D Mean,-1.4%
same,activation at 33.33 µM,[3]; [8],36.4%
same,activation at 100 µM,[3]; [6],-2.6%
same,activation at 100 µM,[3]; read-out: Peak Number—2D Mean,-45.8%
same,activation at 100 µM,[3]; [7],-16.6%
same,activation at 100 µM,[3]; read-out: Peak width - 2D Mean,11.4%
same,activation at 100 µM,[3]; [8],55.3%

# Source: article PMC10046961, “High-Throughput Screening Assay for Detecting Drug-Induced Changes in Synchronized Neuronal Oscillations and Potential Seizure Risk Based on Ca^2+ Fluorescence Measurements in Human Induced Pluripotent Stem Cell (hiPSC)-Derived Neuronal 2D and 3D Cultures” (Cells, 2023)
